The source of these data is patent publication US20250161283A1, “USE OF INDAZOLE COMPOUND FOR TREATING PSORIASIS” (WUHAN CREATERNA SCIENCE AND TECHNOLOGY CO., LTD., priority 2022, published 2025).

The test system of this experiment is BALB/c mice. Description: IMQ (imiquimod) cream-induced psoriasis mouse model. Format: in vivo. Conditions: male BALB/c mice, 15 mg/kg intragastric, twice daily. On the procedure: BALB/c mice, male, 8 weeks old, SPF grade, provided by Shanghai Lingchang Biotechnology Co., Ltd.
In the drawings: • Group 1 Vaseline-Topical Vehicle P.O indicates a normal control group (vehicle group). • Group 2 IMQ+Vehicle P.O indicates a model control group (vehicle group). • Group 3 IMQ+Dex-Topical indicates a positive control group (dexamethasone). • Group 4 IMQ+A 15 mg/kg P.O indicates a compound group (A, 15 mg/kg, intragastric administration). • Group 5 IMQ+B 15 mg/kg P.O indicates a compound group (B, 15 mg/kg, intragastric administration).
First, 50 mice were randomly divided into 5 groups based on body weight: compound group 1—normal control group (vehicle group); compound group 2—model control group (vehicle group); compound group 3—positive control group (dexamethasone); compound group 4 (compound A, 15 mg/kg, intragastrically administered); compound group 5 (compound B, 15 mg/kg, intragastrically administered). On day 0 of the experiment, the dorsal hair of mice in each group was shaved, removing approximately 2 cm*3 cm area of hair. From day 1 to day 7 of the experiment, except for the normal control group, each mouse received an application of 62.5 mg of 5% IMQ cream on the shaved dorsal area and 20.0 mg of 5% IMQ cream on both sides of the right ear. The normal control group received an application of Vaseline. From day 1 to day 8 of the experiment, two hours before IMQ cream stimulation, the above groups were treated with corresponding drugs. The mice were weighed and shaved prior to administration, which was recorded as day 0. The mice were administered drugs from day 1 to day 8, twice daily.
• 1.5.1. Body weight and rate of change: The body weight was recorded, and the rate of change in body weight was calculated. The results are shown in FIG. 1 (presented as Mean±SEM, where *P<0.05, **P<0.01, ***P<0.001, V.S. model control group, Two-way ANOVA, Bonferroni posttests, n=10). • 1.5.2. Right ear thickness measurement: The thickness of the right ear of animals in each group was measured and recorded using a micrometer. The results are shown in FIG. 2 (Note: data presented as Mean±SEM, where *P<0.05, **P<0.01, ***P<0.001, V.S. model control group, Two-way ANOVA, Bonferroni posttests, n=10; data presented as Mean±SEM, where #P<0.5, ##P<0.01, ###P<0.001, V.S. Group 4, Two-way ANOVA, Bonferroni posttests, n=10) • 1.5.3. Dorsal skin scoring: On days 1, 3, 5, and 7, a representative photograph was taken for each group, and clinical scoring of the dorsal skin was performed. The clinical scoring criteria are shown in Table 1, and the results are shown in FIG. 3 (data presented as Mean±SEM, where *P<0.05, **P<0.01, ***P<0.001, V.S. model control group, Two-way ANOVA, Bonferroni posttests, n=10; data presented as Mean±SEM, where #P<0.5, ##P<0.01, ###P<0.001, V.S. Group 4, Two-way ANOVA, Bonferroni posttests, n=10).
• 1.5.4. Spleen weight: On day 8, mice in each group were euthanized by CO2 inhalation, and the spleens were rapidly excised. Right ear and dorsal skin samples were also collected. One-third of the dorsal skin, spleen, and right ear tissues were fixed in 10% neutral formalin fixative for preparation of paraffin sections and HE staining. Another one-third of the dorsal skin was snap-frozen in liquid nitrogen for ELISA analysis. The remaining one-third of the dorsal skin was snap-frozen in liquid nitrogen and stored in a −80° C. freezer for future use. The results are shown in FIG. 4 (Note: data presented as Mean±SEM, where *P<0.05, **P<0.01, ***P<0.001, V.S. model control group, One-way ANOVA, Bonferroni posttests, n=10; data presented as Mean±SEM, where #P<0.5, ##P<0.01, ###P<0.001, V.S. Group 4, One-way ANOVA, Bonferroni posttests, n=10). • 1.5.5. Dorsal skin pathology scoring: Dorsal skin tissue samples were collected from mice and fixed in 10% neutral formalin fixative for 48 hours. The tissues were then degreased in 75% ethanol for 72 hours, with daily medium changes. […]

Consider `COc1cc2nn([C@H]3CC[C@](C)(O)CC3)cc2cc1NC(=O)c1cccc(C)[n+]1[O-]` [Compound B, 2-((2-(trans-4-hydroxy-cis-4-methylcyclohexyl)-6-methoxy-2H-indazol-5-yl)carbamoyl)-6-methylpyridine 1-oxide], for which the “disease symptoms in the keratin, epidermis, and dermis of the dorsal skin” value (HE staining of dorsal skin, compared to model control group) is “alleviation”. In addition, the “dorsal skin pathological scores” value (HE staining of dorsal skin, compared to model control group, FIG. 5) was “significant reduction”. Also, the psoriasis symptoms entry (compared to model control group) is “significant reduction”. Besides, the “weight loss (body weight and rate of change)” value (day 1 to day 8, compared to model control group, FIG. 1) is reported as “significantly inhibited”. For the same molecule, the “increase in right ear thickness” value (day 1 to day 8, compared to model control group, FIG. 2) is on record as “significantly inhibited”. The “PASI clinical scores (dorsal skin: erythema, crusting, skin thickness, score 0-4)” value (scored on days 1, 3, 5, 7, compared to model control group, FIG. 3) was “significant reduction”. The “increase in spleen weight (spleen enlargement)” value (spleen excised on day 8, compared to model control group, FIG. 4) is reported as “significantly inhibited”.
